Patent publication EP0918774B9, “ANDROGEN RECEPTOR MODULATOR COMPOUNDS AND METHODS” (LIGAND PHARMACEUTICALS INCORPORATED, priority 1996, dated 1997)

Molecular target: T1, PR (Homo sapiens, UniProt P06401)
T1 sequence (P06401 1-933): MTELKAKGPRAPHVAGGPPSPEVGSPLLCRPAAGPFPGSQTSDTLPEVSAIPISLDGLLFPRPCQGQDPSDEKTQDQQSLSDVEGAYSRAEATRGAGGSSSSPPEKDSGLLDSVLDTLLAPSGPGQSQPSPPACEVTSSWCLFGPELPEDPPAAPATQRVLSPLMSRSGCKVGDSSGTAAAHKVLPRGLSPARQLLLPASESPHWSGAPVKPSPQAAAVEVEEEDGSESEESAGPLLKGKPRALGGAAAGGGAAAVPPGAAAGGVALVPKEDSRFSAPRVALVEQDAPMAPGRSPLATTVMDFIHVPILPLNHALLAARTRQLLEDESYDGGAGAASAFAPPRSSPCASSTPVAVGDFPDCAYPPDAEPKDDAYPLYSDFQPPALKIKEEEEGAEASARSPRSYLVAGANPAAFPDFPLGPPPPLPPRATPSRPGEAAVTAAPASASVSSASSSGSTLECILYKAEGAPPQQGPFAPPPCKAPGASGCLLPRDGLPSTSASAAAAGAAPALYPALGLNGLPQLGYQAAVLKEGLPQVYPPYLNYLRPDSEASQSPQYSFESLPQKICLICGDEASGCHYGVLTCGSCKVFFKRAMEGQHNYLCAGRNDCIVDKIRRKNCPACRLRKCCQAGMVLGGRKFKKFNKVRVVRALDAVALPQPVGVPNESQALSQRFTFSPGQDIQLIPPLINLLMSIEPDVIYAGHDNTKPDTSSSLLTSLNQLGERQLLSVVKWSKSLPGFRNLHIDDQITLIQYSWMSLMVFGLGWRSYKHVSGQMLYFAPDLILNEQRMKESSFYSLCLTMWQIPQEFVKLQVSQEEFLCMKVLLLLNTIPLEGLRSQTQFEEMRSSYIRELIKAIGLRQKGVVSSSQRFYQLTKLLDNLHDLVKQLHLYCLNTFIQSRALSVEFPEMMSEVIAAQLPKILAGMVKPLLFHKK
Test: cell-based

SMILES: CC12CCCN1c1cc3nc(O)cc(C(F)(F)F)c3cc1CC2 (racemic) [Compound 101, (R/S)-6,7,7a,11-Tetrahydro-7a-methyl-4-trifluoromethyl-2-pyridono[5,6-g]pyrrolidino[1,2-a]quinoline]
- IC50: > 10 µM
